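48-hour exposure; five concentrations; linearly interpolated endpoints. The concentration for 50% growth inhibition is given as GI50.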 Calls of active or inactive are those of the source. Rule as the data show it: active = GI50 up to about 1.1 µM and inactive = higher. Where a SMILES comes first, the peptide text is derived from it. [ ]: non-standard residue; d: D form. The star is where a group is joined. Cbz = O=C(OCc1ccccc1)*; Aib = CC(C)(N)C(=O)O; OBn = c1ccc(CO*)cc1
Tests used:
Assay in all cases: inhibition of tumour cell growth, NCI panel, 48 h
[1] = test system: BT-549
[2] = test system: SR
[3] = test system: RXF 393
[4] = test system: SK-MEL-5
[5] = test system: PC-3
[6] = test system: UACC-62
[7] = test system: MDA-MB-435
[8] = test system: OVCAR-8
[9] = test system: SK-MEL-2
[10] = test system: T47D
[11] = test system: OVCAR-3
[12] = test system: SW-620
[13] = test system: MOLT-4
[14] = test system: ACHN
[15] = test system: Malme-3M
[16] = test system: A549
[17] = test system: OVCAR-4
[18] = test system: SK-OV-3
[19] = test system: OVCAR-5
[20] = test system: M14

Row | Compound | GI50 [1] | GI50 [2] | GI50 [3] | GI50 [4] | GI50 [5] | GI50 [6] | GI50 [7] | GI50 [8] | GI50 [9] | GI50 [10] | GI50 [11] | GI50 [12] | GI50 [13] | GI50 [14] | GI50 [15] | GI50 [16] | GI50 [17] | GI50 [18] | GI50 [19] | GI50 [20]
1 | N=c1oc2ccc(Cl)cc2cc1C(N)=O | 35.2 µM (inactive) | 65.3 µM (inactive) | 29.6 µM (inactive) | 20.5 µM (inactive) | 17.2 µM (inactive) | 16.8 µM (inactive) | 31.7 µM (inactive) | 33.2 µM (inactive) | 13.3 µM (inactive) | 24.8 µM (inactive) | 18.2 µM (inactive) | 45.9 µM (inactive) | > 100 µM (inactive) | 24.4 µM (inactive) | 17.6 µM (inactive) | 42.6 µM (inactive) | 37.1 µM (inactive) | > 100 µM (inactive) | 27 µM (inactive) | 27.5 µM (inactive)
2 | CC1=C2CC(C)(C)/C=C\C(=O)/C(C)=C\C3=C[C@H](C)C[C@]3(O2)C1=O | 0.518 µM (active) | 0.243 µM (active) | 0.597 µM (active) | 1.48 µM (inactive) | 2.02 µM (inactive) | 1.05 µM (active) | 0.706 µM (active) | 0.9 µM (active) | 2.4 µM (inactive) | 0.544 µM (active) | 0.376 µM (active) | 0.41 µM (active) | 0.195 µM (active) | 1.03 µM (active) | 0.897 µM (active) | 4.47 µM (inactive) | 1.52 µM (inactive) | 9.51 µM (inactive) | 1.32 µM (inactive) | 0.494 µM (active)
3 | COC(=O)C#CC1(O)C=CC(=O)C=C1 | 1.01 µM (active) | 0.0519 µM (active) | 1.58 µM (inactive) | 1.72 µM (inactive) | 1.29 µM (inactive) | 0.865 µM (active) | 0.436 µM (active) | 0.203 µM (active) | 2.36 µM (inactive) | 0.583 µM (active) | 0.367 µM (active) | 0.299 µM (active) | 0.0933 µM (active) | 0.571 µM (active) | 2 µM (inactive) | 9.46 µM (inactive) | 3.13 µM (inactive) | 28 µM (inactive) | 1.42 µM (inactive) | 1.25 µM (inactive)
4 | CCOC(=O)c1sc2nc(SC)nc(Nc3ccc4c(c3)OCCCO4)c2c1N | 17.5 µM (inactive) | 16.7 µM (inactive) | 11.8 µM (inactive) | 3.29 µM (inactive) | 20 µM (inactive) | 9.84 µM (inactive) | 11.1 µM (inactive) | 11.4 µM (inactive) | 62.5 µM (inactive) | 2.14 µM (inactive) | 16.5 µM (inactive) | 17.5 µM (inactive) | 2.55 µM (inactive) | 26.9 µM (inactive) | 16.7 µM (inactive) | 8.47 µM (inactive) | 5.47 µM (inactive) | 55.6 µM (inactive) | > 100 µM (inactive) | 17.3 µM (inactive)
5 | CC[P+](C#Cc1ccccc1)(c1ccccc1)c1ccccc1 | 1.31 µM (inactive) | 2.33 µM (inactive) | 0.966 µM (active) | 1.22 µM (inactive) | 2.3 µM (inactive) | 1.63 µM (inactive) | 1.24 µM (inactive) | 1.76 µM (inactive) | 1.98 µM (inactive) | 2.18 µM (inactive) | 1.31 µM (inactive) | 1.17 µM (inactive) | 1.36 µM (inactive) | 3.94 µM (inactive) | 1.59 µM (inactive) | 3.08 µM (inactive) | 3.15 µM (inactive) | 2.93 µM (inactive) | 4.06 µM (inactive) | 1.66 µM (inactive)
6 | CCN1C[C@]2(C)CC[C@H](OCc3ccccc3)C34C5C[C@@H]6CC[C@](O)(C(C[C@@H]32)C14)C5[C@H]6OCc1ccccc1 (stereo not given in full) | > 100 µM (inactive) | 54.8 µM (inactive) | 53.1 µM (inactive) | 51.3 µM (inactive) | 21.7 µM (inactive) | > 100 µM (inactive) | 90.8 µM (inactive) | 93.8 µM (inactive) | 83.9 µM (inactive) | 56.1 µM (inactive) | 35.6 µM (inactive) | > 100 µM (inactive) | 16.7 µM (inactive) | 32.4 µM (inactive) | > 100 µM (inactive) | > 100 µM (inactive) | 85.1 µM (inactive) | > 100 µM (inactive) | > 100 µM (inactive) | 46.9 µM (inactive)
7 | CC(NC(=O)C(C)(C)NC(=O)C(CC(=O)OCc1ccccc1)NC(=O)OCc1ccccc1)C(N)=O (stereo not given) (Cbz-Asp(OBn)-[Aib]-Ala-NH2; configuration not given here) | > 100 µM (inactive) | > 100 µM (inactive) | > 100 µM (inactive) | > 100 µM (inactive) | > 100 µM (inactive) | > 100 µM (inactive) | > 100 µM (inactive) | > 100 µM (inactive) | > 100 µM (inactive) | > 100 µM (inactive) | > 100 µM (inactive) | > 100 µM (inactive) | > 100 µM (inactive) | > 100 µM (inactive) | > 100 µM (inactive) | > 100 µM (inactive) | > 100 µM (inactive) | > 100 µM (inactive) | > 100 µM (inactive) | > 100 µM (inactive)

From ChEMBL document CHEMBL1201862, “PubChem BioAssay data set” (2004)
